Reference: patent publication US20250042898A1, “Pharmaceutical Compounds And Compositions As c-Kit Kinase Inhibitors” (Enanta Pharmaceuticals, Inc., priority 2023, published 2025)

Legend:
[1] = target: Recombinant human c-KIT kinase (Homo sapiens (Human), UniProt P10721); test: c-KIT Kinase Chemiluminescence Assay (ADP-Glo); format: biochemical; conditions: recombinant human c-KIT 25 ng, ATP 50 μM, polyEY substrate, ADP-Glo luminescence
From the text: Staurosporine (AM-2282) and Imatinib (STI571) were purchased from Selleck Chemicals LLC (Houston, TX). The c-KIT reference compound THB001 (EP-053504) was synthesized by Enanta Pharmaceuticals, Inc. (Watertown, MA). The c-KIT Kinase Enzyme System (V4498) and ADP-Glo™ Kinase Assay kit (V6930) were purchased from Promega (Madison, WI). DMSO (D2650) was purchased from Sigma-Aldrich (Burlington, MA). ECHO-650 acoustic liquid handling system (67/492,212) and 384-well LDV ECHO source plates (LP-0200) were purchased from Labcyte, Inc (San Jose, CA). Envision Multimode Plate Reader (2104/464466) and ProxiPlate-384 Plus White 384-shallow well microplates (6008280) were purchased from PerkinElmer (Waltham, MA).
c-KIT Kinase Chemiluminescence Assay:
IC50 determination. Test compounds were dispersed into a 384-well low volume while ProxiPlate microplate from a DMSO solution using an ECHO 650 acoustic dispenser to generate a 11-point, 3.162-fold dilution, concentration curve starting at 10 μM in duplicate. Kinase Reaction: The kinase assay was based on the recommended protocol by c-KIT Kinase Enzyme System from Promega. Recombinant human c-KIT kinase in 3 μL of assay buffer (40 mM Tris pH 7.5, 20 mM MgCl2, 0.1 mg/mL BSA and 50 μM DTT) was added to the test or high control wells and 3 μL of assay buffer was added to the low control wells. The microplate was centrifuged at 800 rotations per minute (rpm) for 60 s and incubated at room temperature (RT) for 30 min. Next, 2 μL of buffered ATP and polyEY substrate solution was added to all wells. The microplate was centrifuged at 800 rpm for 60 s and incubated at RT for 2 h. The final assay contained c-KIT (25 ng), ATP (50 μM), polyEY substrate (0.2 μg/μL), test compounds (0-10 μM) and DMSO (1.7%) in 5 μL assay buffer. ADP detection with ADP-Glo™ Kinase Assay: After the kinase reaction incubation, 5 μL of ADP-Glo™ reagent was added to all wells. The microplate was centrifuged at 800 rpm for 60 s and incubated at RT for 40 min. Ten microliter (10 μL) of Kinase Detection Reagent (Luciferin-Luciferase system) was then added to all wells. The microplate was centrifuged at 800 rpm for 60 s and incubated at RT for 60 min. Kinase activity was measured as increase in luminescence at RT in an Envision plate reader equipped with 560 nm filters and operating in endpoint mode.
Data Analysis: Endpoint chemiluminescence from high and low control wells were used to calculate normalized c-KIT activity at various concentrations of test compounds. The normalized activities were fitted to inhibitor-versus-normalized response fit in GraphPad Prism 7 to determine half-maximal inhibitory concentration (IC50) and hill coefficient values (H).
c-KIT activity (%)=100/(1+I^H/IC50^H).
Where I is the inhibitor concentration and H is the Hill coefficient.
IC50 ranges are reported as follows: A<100 nM; B 0.1-1 μM; C>1 μM.

M-07e cells = test: M-07e Cellular Assay (SCF-mediated cell proliferation, CellTiter Glo); format: cell-based; conditions: Homo sapiens, SCF at EC90, 72 hours incubation, CellTiter Glo cell viability, read-out: M-7e EC50
Experimental: M-07e cells (Creative Bioarray, CSC-C0249) which endogenously express human c-KIT were used to evaluate the effect of compounds on stem cell factor (SCF)-mediated cell proliferation. M-07e cells were cultured in growth media (RPMI+10% FBS+1% penicillin/streptomycin+10 ng/mL GM-CSF) at 5E5-1.5E6 cells/mL, replenishing media every 3-4 days. 1.5E4 cells were seeded per well in 384 well tissue culture treated plates in […] assay media (RPMI+10% FBS+1% penicillin/streptomycin) without growth factor stimulation and incubated at 37° C. in a CO2 humidity-controlled incubator. Twenty-four hours later, three-fold serially diluted test compounds in media containing SCF (at the previously determined EC90) were added to the plated M-07e cells and incubated for an additional 72 hours. Cell viability was determined by adding 25 μL CellTiter Glo (Promega) to the cells and the luminescence was measured using a Perkin Elmer Envision plate reader. The EC50 was determined using GraphPad Prism. Percent cell growth was determined after normalizing the curve to the mean RLU high control (no compound control wells) at 100% and the mean RLU low control (no SCF control wells) at 0%. EC50 curves were generated using a variable slope four-parameter logistic model with equation […]. ECso ranges are reported as follows: A<100 nM; B 0.1-1 μM; C>1 μM.

Recombinant human c-KIT kinase, sequence (P10721 26-976): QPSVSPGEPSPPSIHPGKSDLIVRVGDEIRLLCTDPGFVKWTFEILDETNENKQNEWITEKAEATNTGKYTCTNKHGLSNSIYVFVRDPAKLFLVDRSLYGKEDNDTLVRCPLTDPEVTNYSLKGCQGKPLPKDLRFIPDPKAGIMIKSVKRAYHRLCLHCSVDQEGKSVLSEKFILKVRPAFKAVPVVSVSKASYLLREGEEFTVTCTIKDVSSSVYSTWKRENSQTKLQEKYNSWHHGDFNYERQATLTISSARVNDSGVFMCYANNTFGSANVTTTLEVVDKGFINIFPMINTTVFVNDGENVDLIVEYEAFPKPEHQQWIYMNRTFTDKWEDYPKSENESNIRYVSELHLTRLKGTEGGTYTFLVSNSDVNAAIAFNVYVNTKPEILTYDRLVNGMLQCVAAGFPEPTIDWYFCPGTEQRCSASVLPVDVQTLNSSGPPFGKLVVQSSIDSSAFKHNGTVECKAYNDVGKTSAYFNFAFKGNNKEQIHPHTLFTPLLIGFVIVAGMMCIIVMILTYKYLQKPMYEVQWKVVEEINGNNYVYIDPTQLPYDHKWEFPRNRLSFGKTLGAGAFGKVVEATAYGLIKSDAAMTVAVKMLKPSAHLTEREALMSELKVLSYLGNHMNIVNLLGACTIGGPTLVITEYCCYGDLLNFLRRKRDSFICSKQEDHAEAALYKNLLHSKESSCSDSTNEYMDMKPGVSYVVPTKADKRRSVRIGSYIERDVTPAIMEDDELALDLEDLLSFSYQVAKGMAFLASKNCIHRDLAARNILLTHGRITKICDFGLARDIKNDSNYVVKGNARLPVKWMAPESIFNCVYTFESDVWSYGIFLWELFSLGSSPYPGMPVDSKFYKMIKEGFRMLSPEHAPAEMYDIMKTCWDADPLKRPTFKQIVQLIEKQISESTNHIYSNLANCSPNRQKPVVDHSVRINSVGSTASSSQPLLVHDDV

SMILES	IC50 [1]	EC50 (M-07e cells)
O=C(Nc1cc(-c2noc([C@H]3C[C@@H]3F)n2)ccn1)c1cnc2ccccn12 [Example 1]	> 1000 nM	> 1000 nM
O=C(Nc1cc(-c2noc(C3CC(F)(F)C3)n2)ccn1)c1cnc2ccccn12 [Example 2]	> 1000 nM	> 1000 nM
Cc1sc(-c2noc([C@H]3C[C@@H]3F)n2)cc1NC(=O)c1cnc2ccccn12 [Example 3]	100 to 1000 nM	100 to 1000 nM
Cc1sc(-c2noc(C3CC(F)(F)C3)n2)cc1NC(=O)c1cnc2ccccn12 [Example 4]	100 to 1000 nM	100 to 1000 nM
Cc1ncc(-c2ncc(OC(F)(F)F)cn2)cc1NC(=O)c1cnc2ccc(N3CC4(C3)CC(O)(C(F)F)C4)cn12 [Example 14]	> 1000 nM	
Cc1ncc(-c2noc([C@H]3C[C@@H]3F)n2)cc1NC(=O)c1cnc2ccc(N3CC4(C3)CC(O)(C(F)F)C4)cn12 [Example 15]	100 to 1000 nM	
Cc1ncc(-c2nnn(C3CC(F)(F)C3)n2)cc1NC(=O)c1cnc2ccc(N3CC4(C3)CC(O)(C(F)F)C4)cn12 [Example 16]	100 to 1000 nM	
Cc1ncc(-c2noc([C@H]3C[C@@H]3F)n2)cc1NC(=O)c1cnc2cc(N3CC4(C3)CC(O)(C(F)F)C4)ccn12 [Example 17]	100 to 1000 nM	
